Tested on: human K562 cells
Experiment: Human K562 growth inhibition assay
Type: cell-based
Settings: for Antiproliferative effect on growth of human K562 cells (in words): 333 μM was the highest concentration tested; for IC50: Homo sapiens, K562, 48 h, read-out: Growth inhibition of human K562 cells IC50

| Structure (SMILES) | Antiproliferative effect on growth of human K562 cells (in words) | IC50 [µM] |
| --- | --- | --- |
| CO[C@@H](C(=O)NCC1CCCN(C(=O)C(C)C)C1)[C@H](O)[C@@H](O)[C@H](O)/C=C/C(C)(C)C (stereo partly drawn) [Compound 4, (2R,3R,4S,5R,E)-3,4,5-trihydroxy-N-((1-isobutyrylpiperidin-3-yl)methyl)-2-methoxy-8,8-dimethylnon-6-enamide] | no or weak activity | > 333 |
| CO[C@@H](C(=O)NCCC(c1ccc(F)cc1)c1ccco1)[C@H](O)[C@@H](O)[C@H](O)/C=C/C(C)(C)C (stereo partly drawn) [Compound 7, (2R,3R,4S,5R,E)-N-(3-(4-fluorophenyl)-3-(furan-2-yl)propyl)-3,4,5-trihydroxy-2-methoxy-8,8-dimethylnon-6-enamide] | low and reproducible activity | 96.5 |
| CO[C@@H](C(=O)NCCC(c1ccccc1)c1ccco1)[C@H](O)[C@@H](O)[C@H](O)/C=C/C(C)(C)C (stereo partly drawn) [Compound 6, (2R,3R,4S,5R,E)-N-(3-(furan-2-yl)-3-phenylpropyl)-3,4,5-trihydroxy-2-methoxy-8,8-dimethylnon-6-enamide] | low and reproducible activity | 79.6 |
| CO[C@@H](C(=O)NC1Cc2ccccc2C1)[C@H](O)[C@@H](O)[C@H](O)/C=C/C(C)(C)C [Compound 8, (2R,3R,4S,5R,E)-N-(2,3-dihydro-1H-inden-2-yl)-3,4,5-trihydroxy-2-methoxy-8,8-dimethylnon-6-enamide] | no or weak activity | > 333 |
| CO[C@@H](C(=O)NCC1CCCN(C(=O)C2CC2)C1)[C@H](O)[C@@H](O)[C@H](O)/C=C/C(C)(C)C (stereo partly drawn) [Compound 5, (2R,3R,4S,5R,E)-N-((1-(cyclopropanecarbonyl)piperidin-3-yl)methyl)-3,4,5-trihydroxy-2-methoxy-8,8-dimethylnon-6-enamide] | no or weak activity | > 333 |
| CO[C@@H](C(=O)NCCOc1c(C)cc(C)cc1C)[C@H](O)[C@@H](O)[C@H](O)/C=C/C(C)(C)C [Compound 10, (2R,3R,4S,5R,E)-3,4,5-trihydroxy-N-(2-(mesityloxy)ethyl)-2-methoxy-8,8-dimethylnon-6-enamide] | low and reproducible activity | 37.8 |
| CO[C@@H](C(=O)NCC(N)=O)[C@H](O)[C@@H](O)[C@H](O)/C=C/C(C)(C)C [Compound 9, (2R,3R,4S,5R,E)-N-(2-amino-2-oxoethyl)-3,4,5-trihydroxy-2-methoxy-8,8-dimethylnon-6-enamide] | no or weak activity | > 333 |
